The source of these data is patent US20230256099A1, “Safe Use of Bile Acids and Their Salts as Enhancers for Nasal Delivery of Pharmaceuticals” (priority 2020, published 2023).

As a reminder, the NOAEL is the highest tested level that showed no adverse finding.

Structures are written as SMILES. Some results are limits rather than exact numbers.

For series [1] the following is noted: aqueous; cited from earlier work.
A short description of series [2]: General toxicity study of bile salt (STC) by IN delivery: clinical pathology and organ histopathology (Example 2). The note with it: rat, in vivo, NOAEL for bile salt (STC) at an IN delivery, relative dose, rats; 0.75 mg / 0.298 kg. The procedure: Each rat was treated with two (2) IN administrations of the respective formulations in Groups A1-A5.
The conditions of series [3]: aqueous epinephrine, same dose by IM route; cited from earlier work.

With `C[C@H](CCC(=O)[O-])[C@H]1CC[C@H]2[C@@H]3[C@H](O)C[C@@H]4C[C@H](O)CC[C@]4(C)[C@H]3C[C@H](O)[C@]12C.[Na+]` [SC, sodium cholate], in series [1], the CMC is given as about 4 mM.

`C[C@H](CCC(=O)[O-])[C@H]1CC[C@H]2[C@@H]3CC[C@@H]4C[C@H](O)CC[C@]4(C)[C@H]3CC[C@]12C.[Na+]` [SLC, sodium lithocholate]: the CMC in series [1] is on record as about 1 mM. Take `C[C@H](CCC(=O)NCCS(=O)(=O)[O-])[C@H]1CC[C@H]2[C@@H]3[C@H](O)C[C@@H]4C[C@H](O)CC[C@]4(C)[C@H]3C[C@H](O)[C@]12C.[Na+]` [STC, sodium taurocholate]: the NOAEL in series [2] is at least 2.5 mg/kg. Turning to `CNC[C@H](O)c1ccc(O)c(O)c1` [epinephrine], the “bioavailability (BA) based on AUC of plasma concentration, IN relative to IM” value in series [3] is listed as “approximately 5%”.
